Earlier results, collected in US20020086849A1, “Method for introducing antisense oligonucleotides into eucaryotic cells” (priority 2000, published 2002).

Details: as described in U.S. Pat. No. 5,753,613

CCCCCCCCCCCCCCCCCC[N+](C)(C)CCCCCCCCCCCCCCCCCC.[Br-] [DDAB, dimethyldioctadecylammonium bromide]
transfection efficiency: poor transfection efficiency
